Assay results as given in patent US6258790A, “Antisense modulation of integrin α4 expression” (Isis Pharmaceuticals, Inc., priority 1999, dated 2001).

Assays:
[1] = tested on: human integrin α4; assay: Integrin α4 protein expression in A375 cells after electroporation of oligonucleotide (flow cytometry); type: cell-based
Description: A375 cells were treated with ISIS 107245, 107248, 107252, 107255 and 107259 by electroporation at 175 volts, r=1, c=1000, 0.2 ml Opti-MEM, 1×10^6 cells /ml, 2 mm gap electrode using a BTX Electro Cell Manipulator 600 (Genetronics, San Diego Calif.). Oligonucleotide concentrations were 1, 3, 10 and 30 μM. Cells were harvested 24 hours after oligonucleotide treatment and strained with 2 ug/ml CD49d-FITC for flow cytometry as in the previous examples.
ISIS 107248 was compared directly to ISIS 27104 for ability to inhibit integrin α4 expression in A375 melanoma cells. Oligonucleotides were electroporated into cells as in the previous example.

[2] = tested on: human integrin α4; assay: Inhibition of human integrin α4 protein levels by antisense oligonucleotides (LIPOFECTIN, flow cytometry with CD49d-FITC) in A375 melanoma cells; type: cell-based
[3] = tested on: Mouse experimental autoimmune encephalomyelitis (EAE); assay: Mouse experimental autoimmune encephalomyelitis (EAE) model for multiple sclerosis; type: in vivo, mouse (CSJLF-1); conditions: for Peak Severity: score 0 to 5; for effect on EAE given therapeutically: therapeutic
[4] = EAE Experiment 1, 1 mg/kg daily SC
[5] = EAE Experiment 1, 5 mg/kg daily SC
[6] = EAE Experiment 1, 10 mg/kg daily SC
[7] = EAE Experiment 1, 20 mg/kg daily SC
[8] = EAE Experiment 3, 1 mg/kg 3× weekly
[9] = EAE Experiment 4, 0.01 mg/kg, prophylactic (P)
[10] = EAE Experiment 4, 0.1 mg/kg SC, prophylactic (P)
[11] = EAE Experiment 4, 1.0 mg/kg SC, prophylactic (P)
[12] = EAE Experiment 4, 1 mg/kg, therapeutic (T), day 18 to 31
[13] = EAE Experiment 4, 2.0 mg/kg SC, prophylactic (P)
[14] = EAE Experiment 5, 0.01 mg/kg, prophylactic (P)
[15] = EAE Experiment 5, 0.1 mg/kg SC, prophylactic (P)
[16] = EAE Experiment 5, 1.0 mg/kg SC, prophylactic (P)
[17] = EAE Experiment 5, 1 mg/kg, therapeutic (T), day 11 to 27
[18] = EAE Experiment 5, 2.0 mg/kg SC, prophylactic (P)

In the case of “107248 (antisense CTGAGTCTGTTTTCCATTCT; chemistry not given here) [compound 107248]”, the “% Control” value ([1]; Table 25, 1 nM as printed, 24 hours) was 9.1%, the “% Control” value ([1]; Table 25, 10 nM, 24 hours) was 23.2% and the “% Control” value ([1]; Table 25, 30 nM, 24 hours) was 52.1%. For the same substance, the “% Control” value ([1]; Table 26, 1 μM) was 52.1%, the “% Inhib.” value ([1]; Table 26, 1 μM) was 47.9% and the “% Control” value ([1]; Table 26, 3 μM) was 17.4%. The “% Inhib.” value ([1]; Table 26, 3 μM) was 82.6%, the “% Control” value ([1]; Table 26, 10 μM) was 7.9% and the “% Inhib.” value ([1]; Table 26, 10 μM) was 92.1%. The “% Control” value ([1]; Table 26, 30 μM) was 2.9%, the “% Inhib.” value ([1]; Table 26, 30 μM) was 97.1% and the “% Control” value ([2]; Table 24, A375 cells, lipofectin, as Example 8) was 34%.
“17044 (CCGCAGCCATGCGCTCTTGG; phosphorothioate, 2'-MOE/deoxy, further chemistry not given here) [compound 17044]” was tested, and the “effect on EAE” value ([3]; EAE Experiment 1) was “reduced disease severity or delayed disease onset”, the “Days to Onset” value [3, 4] was 17.25 days and the “Disease Incidence” value [3, 4] was 4/7. For the same substance, the “Peak Severity” value [3, 4] was 0.29, the “Days to Onset” value [3, 5] was 17 days and the “Disease Incidence” value [3, 5] was 6/7. For the same substance, the “Peak Severity” value [3, 5] was 1.86, the “Days to Onset” value [3, 6] was 12.75 days and the “Disease Incidence” value [3, 6] was 4/7. For the same substance, the “Peak Severity” value [3, 6] was 2.0, the “Days to Onset” value [3, 7] was 15 days and the “Disease Incidence” value [3, 7] was 5/7. For the same substance, the “Peak Severity” value [3, 7] was 1.43, the “effect on EAE” value ([3]; EAE Experiment 2) was “reduced disease severity and delayed disease onset at all concentrations” and the “Days to Onset” value ([3]; EAE Experiment 2, 0.3 mg/kg SC) was 16.57 days. For the same substance, the “Disease Incidence” value ([3]; EAE Experiment 2, 0.3 mg/kg SC) was 7/7, the “Peak Severity” value ([3]; EAE Experiment 2, 0.3 mg/kg SC) was 2.14 and the “Days to Onset” value ([3]; EAE Experiment 2, 1 mg/kg IV) was 17.2 days. For the same substance, the “Disease Incidence” value ([3]; EAE Experiment 2, 1 mg/kg IV) was 5/7, the “Peak Severity” value ([3]; EAE Experiment 2, 1 mg/kg IV) was 1.42 and the “Days to Onset” value ([3]; EAE Experiment 2, 1 mg/kg SC) was 18.25 days. The “Disease Incidence” value ([3]; EAE Experiment 2, 1 mg/kg SC) was 4/7, the “Peak Severity” value ([3]; EAE Experiment 2, 1 mg/kg SC) was 1.0 and the “Days to Onset” value ([3]; EAE Experiment 2, 3 mg/kg SC) was 16.4 days. The “Disease Incidence” value ([3]; EAE Experiment 2, 3 mg/kg SC) was 7/7, the “Peak Severity” value ([3]; EAE Experiment 2, 3 mg/kg SC) was 2.29 and the “effect on EAE” value ([3]; EAE Experiment 3) was “reduced disease severity or delayed disease onset”. For the same substance, the “Days to Onset” value ([3]; EAE Experiment 3, 0.5 mg/kg SC) was 21.4 days, the “Disease Incidence” value ([3]; EAE Experiment 3, 0.5 mg/kg SC) was 5/6 and the “Peak Severity” value ([3]; EAE Experiment 3, 0.5 mg/kg SC) was 1.5. The “Days to Onset” value [3, 8] was 20.3 days, the “Disease Incidence” value [3, 8] was 6/7 and the “Peak Severity” value [3, 8] was 1.0. For the same substance, the “Days to Onset” value ([3]; EAE Experiment 3, 1.0 mg/kg SC) was 19.25 days, the “Disease Incidence” value ([3]; EAE Experiment 3, 1.0 mg/kg SC) was 4/5 and the “Peak Severity” value ([3]; EAE Experiment 3, 1.0 mg/kg SC) was 1.5. The “Days to Onset” value ([3]; EAE Experiment 3, 1.5 mg/kg SC) was 17.5 days, the “Disease Incidence” value ([3]; EAE Experiment 3, 1.5 mg/kg SC) was 4/7 and the “Peak Severity” value ([3]; EAE Experiment 3, 1.5 mg/kg SC) was 1.5. The “Days to Onset” value ([3]; EAE Experiment 3, 2 mg/kg SC) was 20 days, the “Disease Incidence” value ([3]; EAE Experiment 3, 2 mg/kg SC) was 2/6 and the “Peak Severity” value ([3]; EAE Experiment 3, 2 mg/kg SC) was 0.83. The “Days to Onset” value [3, 9] was 13.83 days, the “Disease Incidence” value [3, 9] was 6/7 and the “Peak Severity” value [3, 9] was 1.86. The “Days to Onset” value [3, 10] was 16.29 days, the “Disease Incidence” value [3, 10] was 7/7 and the “Peak Severity” value [3, 10] was 1.57. For the same substance, the “Days to Onset” value [3, 11] was 15 days, the “Disease Incidence” value [3, 11] was 5/5 and the “Peak Severity” value [3, 11] was 2.2. For the same substance, the “Days to Onset” value [3, 12] was 13.3 days, the “Disease Incidence” value [3, 12] was 6/6 and the “Peak Severity” value [3, 12] was 1.83. The “Days to Onset” value [3, 13] was 16.71 days, the “Disease Incidence” value [3, 13] was 7/7 and the “Peak Severity” value [3, 13] was 2.29. For the same substance, the “effect on EAE given therapeutically” value ([3]; EAE Experiment 4) was “reduced disease severity when given therapeutically”, the “Days to Onset” value [3, 14] was 11.57 days and the “Disease Incidence” value [3, 14] was 7/7. The “Peak Severity” value [3, 14] was 1.57, the “Days to Onset” value [3, 15] was 12.67 days and the “Disease Incidence” value [3, 15] was 6/7. The “Peak Severity” value [3, 15] was 1.14, the “Days to Onset” value [3, 16] was 11.33 days and the “Disease Incidence” value [3, 16] was 6/7. For the same substance, the “Peak Severity” value [3, 16] was 1.86, the “Days to Onset” value [3, 17] was 12.71 days and the “Disease Incidence” value [3, 17] was 7/7. The “Peak Severity” value [3, 17] was 1.42, the “Days to Onset” value [3, 18] was 12 days and the “Disease Incidence” value [3, 18] was 7/7. For the same substance, the “Peak Severity” value [3, 18] was 1.86, the “effect on EAE given therapeutically” value ([3]; EAE Experiment 5) was “reduced disease severity when given therapeutically” and the “% Control” value ([2]; Table 4, 10 nM) was 86%. The “% Inhib.” value ([2]; Table 4, 10 nM) was 14%, the “% Control” value ([2]; Table 4, 30 nM) was 73% and the “% Inhib.” value ([2]; Table 4, 30 nM) was 27%. The “% Control” value ([2]; Table 4, 100 nM) was 60%, the “% Inhib.” value ([2]; Table 4, 100 nM) was 40% and the “% Control” value ([2]; Table 4, 300 nM) was 58%. For the same substance, the “% Inhib.” value ([2]; Table 4, 300 nM (highest dose)) was 42%, the “% Control” value ([2]; Table 6, 10 nM) was 97% and the “% Control” value ([2]; Table 6, 30 nM) was 84%. For the same substance, the “% Inhib.” value ([2]; Table 6, 30 nM) was 16%, the “% Control” value ([2]; Table 6, 100 nM) was 68% and the “% Inhib.” value ([2]; Table 6, 100 nM) was 32%. The “% Control” value ([2]; Table 6, 300 nM) was 39% and the “% Inhib.” value ([2]; Table 6, 300 nM (highest dose)) was 61%.
